For series [1], the system named is participants with obesity and participants with T2DM. Description: CT-868-003 crossover study: safety. The note with it: in vivo. The class given is in vivo, human. The source says: Safety assessments of this study included treatment-emergent adverse events (TEAEs), serious adverse events (SAEs), adverse events of special interest (AESI), vital signs, 12-lead electrocardiogram (ECG), clinical lab evaluations, and physical exam.
Safety assessments which occurred throughout the entire study, included monitoring of incidence and severity of AEs, treatment-emergent AEs (TEAEs) and AEs of special interest (AESIs) (e.g., GI events, hypoglycemia), clinical laboratory abnormalities (ECGs, chemistry, hematology, and urinalysis), and changes in vital sign measurements (BP, heart rate, respiratory rate, and aural temperature).
AE terms recorded by the Investigator were coded to system organ class (SOC) and preferred term (PT) using the Medical Dictionary for Regulatory Activities (MedDRA) version 24.0. Severity was collected using the Common Terminology Criteria for AEs (CTCAE) version 5.0 Toxicity Grade. Events with missing severity were summarized as Grade 3. TEAEs summarized by severity counted each participant once for the maximum severity within each SOC and PT within each in-house treatment period and overall. TEAEs marked with a relationship to study treatment as definitely, probable, possible, or missing were considered as related TEAEs. Events with missing relationship to study treatment were summarized as related. The number and percentage of participants with TEAEs were summarized by MedDRA-coded SOCs and PTs.

Series [2] is described as follows: pharmacokinetics in CD-1 mice, single SC injection. The note with it: 1 mg/kg SC.
Method: Blood was kept on ice until centrifuged at 4600 rpm for five minutes at 4° C. Plasma was stored at −80° C. until analysis. Compounds were extracted from plasma and quantified against a standard curve using an AB Sciex 7500+LC-MS/MS system (FIG. 5).
Series [3] has as its system lean C57BL/6J, GLP-1R+/+ and GLP-1R-/- mice. Briefly: single intracerebroventricular injection: food consumption and body weight. The note with it: lean mice, single ICV 0.025 nmol, up to 72 h.
The test system of series [4] is C57BL/6J-DIO mice. Briefly: intraperitoneal glucose tolerance test in DIO mice. Format: in vivo, mouse. The following applies: for efficacy in ipGTT eight hours post-drug administration (in words): C57BL/6J-DIO mice, single dose 2.4 nmol/kg.
Series [5] has as its target human GLP-1R (Homo sapiens, UniProt P43220). Description: receptor internalization (Nano-Glo HiBiT), human GLP-1R. The class given is cell-based. Further details: host or cells: HEK293. (HiBiT is a short tag that completes a luciferase, so light tracks the accessible tagged protein.)
Method: GLP-1R and GIPR internalization were measured using Promega's Nano-Glo® HiBit extracellular detection system (Promega Corporation; Madison, WI). Hek293 cells were transiently transfected with HiBiT-tagged hGLP-1R or hGIPR plasmids (Promega Corporation; Madison, WI). Cells were lifted using the TrypLE express enzyme (ThermoFisher Scientific) and plated at 80,000-100,000 cells per well in 96 well plates. Cells were then treated with Nano-Glo HibiT extracellular buffer containing LgBiT protein (1:100), and the Nano-Glo HiBiT extracellular substrate (1:50).
GLP-1R and GIPR internalization was measured using Promega's Nano-Glo® HiBit extracellular detection system (Promega Corporation; Madison, WI). HEK293 cells were transiently transfected with low quantities of HiBiT-tagged hGLP-1R or hGIPR plasmids (Promega Corporation; Madison, WI). The next day, cells were lifted using TrypLE express enzyme (ThermoFisher Scientific) and plated at 80,000-100,000 cells per well in 96 well plates.

Ends that are not written are not given here.

human GLP-1R, sequence (P43220 24-463): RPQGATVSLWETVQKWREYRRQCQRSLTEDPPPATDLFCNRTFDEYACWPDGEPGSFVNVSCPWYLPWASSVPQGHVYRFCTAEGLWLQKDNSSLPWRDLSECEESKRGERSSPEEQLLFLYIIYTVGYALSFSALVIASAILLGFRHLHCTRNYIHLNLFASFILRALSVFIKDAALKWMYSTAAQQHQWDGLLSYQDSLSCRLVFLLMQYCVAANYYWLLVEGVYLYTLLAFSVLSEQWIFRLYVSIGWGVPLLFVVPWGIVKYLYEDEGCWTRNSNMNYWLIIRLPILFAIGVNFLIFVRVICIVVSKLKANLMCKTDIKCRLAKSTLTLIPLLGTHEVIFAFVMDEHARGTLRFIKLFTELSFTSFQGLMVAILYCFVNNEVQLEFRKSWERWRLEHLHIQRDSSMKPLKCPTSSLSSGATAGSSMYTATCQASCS

As to `CCCCCCCCCCCCCCCC(=O)N[C@@H](CCC(=O)NCCCC[C@H](NC(=O)[C@H](C)NC(=O)[C@H](C)NC(=O)[C@H](CCC(N)=O)NC(=O)CNC(=O)[C@H](CCC(=O)O)NC(=O)[C@H](CC(C)C)NC(=O)[C@H](Cc1ccc(O)cc1)NC(=O)[C@H](CO)NC(=O)[C@H](CO)NC(=O)[C@@H](NC(=O)[C@H](CC(=O)O)NC(=O)[C@H](CO)NC(=O)[C@@H](NC(=O)[C@H](Cc1ccccc1)NC(=O)[C@@H](NC(=O)CNC(=O)[C@H](CCC(=O)O)NC(=O)[C@H](C)NC(=O)[C@@H](N)Cc1cnc[nH]1)[C@@H](C)O)[C@@H](C)O)C(C)C)C(=O)N[C@@H](CCC(=O)O)C(=O)N[C@@H](Cc1ccccc1)C(=O)N[C@H](C(=O)N[C@@H](C)C(=O)N[C@@H](Cc1c[nH]c2ccccc12)C(=O)N[C@@H](CC(C)C)C(=O)N[C@H](C(=O)N[C@@H](CCCNC(=N)N)C(=O)NCC(=O)N[C@@H](CCCNC(=N)N)C(=O)NCC(=O)O)C(C)C)[C@@H](C)CC)C(=O)O` [liraglutide, Liraglutide, reference compound], in series [1], the “AEs of Special Interest (AESI) Total” value is on record as 4 (40.0) n (%); the Abdominal pain is listed as 0 n (%); the Anaemia is given as 0 n (%); the “Any AESIs, Grade 2” value is listed as 1 (25.0%) n (%). Moreover, in series [1], the Arthralgia is listed as 0 n (%), the “At Least 1 Study Drug Related TEAE” value was 3 (30.0) n (%), the “At Least 1 TEAE” value is listed as 7 (70.0) n (%) and the Back pain is 0 n (%). Further, in series [1], the “Blood and lymphatic system disorders” value was 0 n (%); the Chills is 0 n (%); the Coagulation test abnormal is 0 n (%); the Constipation is on record as 0 n (%). Further, in series [1], the Decreased appetite is 0 n (%), the Diarrhoea is recorded as 0 n (%), the Dizziness is recorded as 0 n (%) and the Eructation is 0 n (%). Further, in series [1], the Gastroesophageal reflux disease was 0 n (%); the “General disorders and administration site conditions” value was 0 n (%); the Headache was 0 n (%); the Hypoglycemia is 3 (30.0) n (%). In series [1], the Infections and infestations was 0 n (%); the “Injection Site Reaction” value is reported as 0 n (%); the Injection site haemorrhage is given as 0 n (%); the Injection site reactions is given as 0 n (%). Further, in series [1], the Investigations was 0 n (%); the “Musculoskeletal and connective tissue disorders” value was 0 n (%); the Nervous system disorders is given as 0 n (%); the Peripheral swelling is on record as 0 n (%). In series [1], the Rash was 0 n (%), the SAEs is recorded as 0 n (%), the Skin hyperpigmentation is 0 n (%) and the “TEAEs leading to drug discontinuation” value is listed as 0 n (%). Besides, in series [1], the “Treatment Discontinuation” value is 0 n (%), the Urinary tract infection was 0 n (%), the Vomiting was 0 n (%) and the “participants with Grade 1 hypoglycemia events” value came to 3 participants. In addition, the “times more exposure than CT-859” value in series [2] is 6 times.
For Exendin-4 [Ex-4, reference compound], the “food consumption and body weight after ICV injection (in words)” value (shortened to “food consumption and body weight”) in series [3] was “started to lose efficacy by 48 hours”; in series [3] (listed as exendin-4), “significant reduction of cumulative food consumption”. In addition, the “efficacy in ipGTT eight hours post-drug administration (in words)” value in series [4] is given as “no longer effective”.
On to “FG-EGT-FTS-DLS-KQM-EEE-AVR-LFI-EWL-LAG-GPS-SGA-PPPS-NH2 (FGEGTFTSDLSKQMEEEAVRLFIEWLLAGGPSSGAPPPS-NH2) [Ex-Phe1, reference compound]”, for which the “signalling profile at GLP-1R (in words)” value in series [5] is “cAMP-biased agonist that prevents receptor internalization”. Besides, in series [3], the “food consumption and body weight” value is “remained efficacious”. Further, the “food consumption and body weight” value in series [3] (listed as exendin-Phe1) is “greater reduction of food intake and much more prolonged body weight reduction as compared to exendin-4”. Also, in series [4], the “glucose tolerance and body weight vs exendin-4 (in words)” value was “improves glucose tolerance and decreases body weight more than exendin-4”; the “efficacy in ipGTT eight hours post-drug administration (in words)” value is “remained efficacious”.

For the origin of these results see patent US20240366728A1, “Treatment of Diabetes Mellitus” (Carmot Therapeutics Inc., priority 2023, published 2024).
